The conditions of data set [1]: cited from earlier work.
Data set [2] is described as follows: Solvent characteristics (hydrophobic / polar / hydrophilic / complex). The data set is classed as physicochemical. An excerpt: […] conceptual segments were defined for nonelectrolyte molecules: a hydrophobic segment, a polar segment, a hydrophilic segment and a solvation segment. […] Real molecules in turn are used as reference molecules for the conceptual segments and available phase equilibrium data of these reference molecules are used to identify NRTL binary parameters for the conceptual segments. […] The study was focused on the 59 ICH solvents used in pharmaceutical process design.
Hydrocarbon solvents (aliphatic or aromatic), halogenated hydrocarbons, and ethers are mainly hydrophobic. Ketones, esters and amides are both hydrophobic and polar. Alcohols, glycols, and amines may have both substantial hydrophilicity and hydrophobicity. Acids are complex, with hydrophilicity, polarity, and hydrophobicity.

The conditions of data set [3]: compiled from internet websites and Aspen Properties v2004.1; cited from earlier work.

As to `O=C(CCCN1CCC(O)(c2ccc(Cl)cc2)CC1)c1ccc(F)cc1` [Haloperidol], the solubility entry in data set [1] (in chloroform and DMF, 298.15K) is given as “unusually high solubilities”.

Consider `O=C([O-])c1ccccc1O.[Na+]` [sodium salicylate], for which the “solubility (data)” value in data set [1] (in benzene, cyclohexane, and heptane) was “very low but measurable solubility”.

Regarding `COC(C)(C)C` [METHYL-TERT-BUTYL-ETHER, Methyl-tert-butyl-ether], the Solvent characteristics result in data set [2] was “Hydrophobic”. The “dielectric constant at 298.15 K” value in data set [3] is recorded as 2.6.

With `CN(C)C=O` [N,N-DIMETHYLFORMAMIDE, N,N-Dimethylformamide], the Solvent characteristics entry in data set [2] is given as “Polar”. Besides, the “dielectric constant at 298.15 K” value in data set [3] is listed as 38.3.

Turning to `CCOC(C)=O` [ETHYL-ACETATE, Ethyl-acetate], the Solvent characteristics entry in data set [2] is “Hydrophobic/Polar”. Also, the “dielectric constant at 298.15 K” value in data set [3] is reported as 6.02.

For the molecule `Cc1cccc(C)c1` [M-XYLENE, m-Xylene], the Solvent characteristics result in data set [2] is “Hydrophobic”. In data set [3], the “dielectric constant at 298.15 K” value is recorded as 2.24.

As to `C1COCCO1` [1,4-DIOXANE, 1,4-Dioxane], in data set [2], the Solvent characteristics entry is “Polar”. The “dielectric constant at 298.15 K” value in data set [3] is listed as 2.21.

Regarding `ClCCl` [DICHLOROMETHANE, Dichloromethane], the Solvent characteristics entry in data set [2] is “Polar”. For the same molecule, the “dielectric constant at 298.15 K” value in data set [3] was 8.9.

Take `CC(C)c1ccccc1` [CUMENE, Cumene]: the Solvent characteristics result in data set [2] is “Hydrophobic”. Besides, in data set [3], the “dielectric constant at 298.15 K” value is given as 2.22.

As for `CN1CCCC1=O` [N-METHYL-2-PYRROLIDONE, N-Methyl-2-pyrrolidone], the Solvent characteristics result in data set [2] is “Hydrophobic”. For the same molecule, in data set [3], the “dielectric constant at 298.15 K” value was 33.

As to `CCCCOC(C)=O` [N-BUTYL-ACETATE, n-Butyl-acetate], the Solvent characteristics entry in data set [2] is “Hydrophobic/Polar”. Besides, in data set [3], the “dielectric constant at 298.15 K” value was 5.1.

Turning to `COc1ccccc1` [ANISOLE, Anisole], the Solvent characteristics result in data set [2] was “Hydrophobic”. In addition, the “dielectric constant at 298.15 K” value in data set [3] was 4.3.

Regarding `CCCCCO` [1-PENTANOL, 1-Pentanol], the Solvent characteristics entry in data set [2] is listed as “Hydrophobic/”. Further, the “dielectric constant at 298.15 K” value in data set [3] is listed as 13.9.

As for `CCOCC` [DIETHYL-ETHER, Diethyl-ether], the Solvent characteristics result in data set [2] was “Hydrophobic”. In data set [3], the “dielectric constant at 298.15 K” value is given as 4.26.

For `CC(=O)O` [ACETIC-ACID, Acetic acid], the Solvent characteristics result in data set [2] is listed as “Complex”. Also, the “dielectric constant at 298.15 K” value in data set [3] is 6.13.

For `CC#N` [ACETONITRILE, Acetonitrile], the Solvent characteristics result in data set [2] is “Polar”. The “dielectric constant at 298.15 K” value in data set [3] was 36.97.

Source of the values: patent publication US8666675B2, “Computer method and system for predicting physical properties using a conceptual segment model” (Aspen Technology, Inc., priority 2004, dated 2014).
